# Experiments:
# [1] = test system: brain field potentials (EEG power spectrum); conditions: rats, cited from earlier work; for change of EEG theta, alpha1,2 and beta1,2 power: α2-adrenoceptor agonists, Dimpfel and Schober, 2001; for change of EEG alpha1,2 and beta1,2 power: general anaesthetics, Dimpfel, 2003
# [2] = test system: electrical activity of the human brain; assay: Quantitative EEG (CATEEM) during and after 24 h intravenous infusion in healthy male volunteers, placebo-controlled crossover; assay type: in vivo; conditions: 300 mg/kg iv over 24 h
# Source text: The present inventors have now studied the effect of ketosis, in the exemplified case induced by administration of sodium salt of (R)-3-hydroxybutyrate (herein referred to as KTX 0101) as a single intravenous infusion of increasing dose and duration to 3 groups (Parts A, B and C) with 3 cohorts of 3 subjects each in Part A, and 1 cohort in each of Parts B (n=3) and C (n=8). Parts A and B were a partial crossover design and Part C was a crossover design. For details see protocol.
# A 17-electrode EEG was recorded pre-dose and at 6, 12 and 24 h during the infusion and 1 and 24 hours following the end of drug administration. Recordings were performed under two physiological conditions, namely with 5 minutes eyes open and eyes closed, respectively. KTX 0101 was administered intravenously at a dose of 300 mg/kg given over 24 hours to 1 cohort (n=8) in a double blind placebo controlled crossover design (Part C of the study).
# Single rising doses of KTX 0101 or placebo were administered to groups of healthy male volunteers according to a pre-specified dose escalation schedule (see main report). Incremental doses were administered in a stepwise manner proceeding to each higher dose only if the drug was well tolerated and the criteria for stopping dosing had not been met. The last two cohorts obtained the highest doses of 300 mg/kg and consisted of enough volunteers to justify a preliminary evaluation of recorded EEG data in order to obtain information on the pharmacodynamic effects of the potential drug. After recording of pre dose values the infusion was started and continued for 24 hours. EEG recordings took place during the infusion (6, 12 and 24 h) and 1 and 24 h after the end of the infusion. Each recording period was performed under 5 minutes eyes open and 5 minutes of eyes closed condition.
# The EEG was recorded bipolarly from 17 surface electrodes according to the international 10/20 system with Cz as a physical reference electrode (Computer aided topographical electro-encephalo-metry: CATEEM® from MediSyst GmbH, 35440 Linden, Germany), using an electrocap. The raw signals were amplified, digitized (2048 Hz/12 bit) and transmitted via fiber optical devices to the computer. […] ECG and EOG were recorded in one channel each in order to facilitate detection of those signals superposing on to the EEG. […] The amount of rejected data was determined automatically and given in percent of total recording time. […] The data was recorded under two physiological conditions over a period of 5 minutes each (eyes open and eyes closed).
# Using a Lagrange interpolation, signals from 82 additional virtual electrodes were calculated to provide high resolution topographical maps. […] Data were analysed from 0.86 to 35 Hz using the CATEEM® software. […]
molecule,measurement,setting,value
"CC(Oc1c(Cl)cccc1Cl)C1=NCCN1 (single isomer, unassigned; (-)) [(-)lofexidine]","change of EEG theta, alpha1,2 and beta1,2 power",[1],"Combined increases in theta, alpha1,2 and beta1,2 power"
"C[C@@H](O)CC(=O)[O-].[Na+] [KTX 0101, sodium salt of (R)-3-hydroxybutyrate]",time after end of infusion up to which EEG changes could be traced,[2],up to 24 hours
same,change of EEG electrical power relative to pre-drug values,"[2]; averaged over 15 electrode positions, during and after infusion","increases of electrical power were observed, especially with respect to theta, alpha and beta power"
same,change of EEG electrical power relative to pre-dose values,"[2]; eyes closed, centro-parietal regions, theta, alpha1, alpha2 and beta 1 ranges","increases of electrical power could be observed for the 6 h time period, less for the 12 h period but consistently thereafter"
same,change of EEG electrical power relative to pre-dose values,"[2]; eyes open, single electrode positions (FIG. 1)",an increase of delta and theta power as well as of alpha power is observed
Clc1cccc(Cl)c1N=C1NCCN1 [clonidine],"change of EEG theta, alpha1,2 and beta1,2 power",[1],"Combined increases in theta, alpha1,2 and beta1,2 power"
FC(F)OC(F)C(F)(F)F (stereo not shown) [desflurane],"change of EEG alpha1,2 and beta1,2 power",[1],"combined increases in alpha1,2 and beta1,2 power"
FC(F)OC(F)(F)C(F)Cl (stereo not shown) [enflurane],"change of EEG alpha1,2 and beta1,2 power",[1],"combined increases in alpha1,2 and beta1,2 power"
N=C(N)NC(=O)Cc1c(Cl)cccc1Cl [guanfacine],"change of EEG theta, alpha1,2 and beta1,2 power",[1],"Combined increases in theta, alpha1,2 and beta1,2 power"
FC(F)(F)C(Cl)Br (stereo not shown) [halothane],"change of EEG alpha1,2 and beta1,2 power",[1],"combined increases in alpha1,2 and beta1,2 power"
COc1nc(C)nc(Cl)c1N=C1NCCN1 [maxonidine],"change of EEG theta, alpha1,2 and beta1,2 power",[1],"Combined increases in theta, alpha1,2 and beta1,2 power"
Cc1cccc(C(C)c2c[nH]cn2)c1C (stereo not shown) [metedomidine],"change of EEG theta, alpha1,2 and beta1,2 power",[1],"Combined increases in theta, alpha1,2 and beta1,2 power"
isoflurothane,"change of EEG alpha1,2 and beta1,2 power",[1],"combined increases in alpha1,2 and beta1,2 power"

# From patent publication US20220160666A1, “COMPOSITIONS FOR USE IN SURGERY” (BTG INTERNATIONAL LIMITED, priority 2004, published 2022)
